One series has as its target T1, Beta-galactosidase (Homo sapiens, UniProt P16278).
T1 sequence (P16278 whole entry): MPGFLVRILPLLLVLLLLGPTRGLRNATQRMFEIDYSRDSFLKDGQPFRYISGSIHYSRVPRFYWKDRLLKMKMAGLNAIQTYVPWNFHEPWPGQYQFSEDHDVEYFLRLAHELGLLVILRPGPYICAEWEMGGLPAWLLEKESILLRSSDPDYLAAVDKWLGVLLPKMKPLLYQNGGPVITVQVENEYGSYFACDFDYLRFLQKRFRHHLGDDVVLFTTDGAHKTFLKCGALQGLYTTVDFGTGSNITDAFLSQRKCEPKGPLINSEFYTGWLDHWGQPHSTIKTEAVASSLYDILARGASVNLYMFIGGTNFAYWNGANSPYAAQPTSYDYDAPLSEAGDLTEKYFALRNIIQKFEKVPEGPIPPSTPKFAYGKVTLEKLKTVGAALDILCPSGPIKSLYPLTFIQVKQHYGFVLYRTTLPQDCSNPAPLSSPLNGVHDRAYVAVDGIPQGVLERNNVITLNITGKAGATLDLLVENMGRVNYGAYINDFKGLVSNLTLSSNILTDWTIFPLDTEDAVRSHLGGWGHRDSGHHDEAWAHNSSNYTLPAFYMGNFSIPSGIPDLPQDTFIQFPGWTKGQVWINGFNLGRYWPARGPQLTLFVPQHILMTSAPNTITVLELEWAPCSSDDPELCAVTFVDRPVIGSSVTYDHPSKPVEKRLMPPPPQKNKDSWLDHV
Kind of series: Inhibition of human beta-galactosidase expressed in mouse fibroblasts using 4-methylumbelliferone -conugated beta-D-galactoside as substrate incubated for 30 mins at pH 4.5 followed by substrate addition by fluorescence analysis.

The subject of series [1] is T2, Beta-galactosidase (Homo sapiens), P16278 [R201C].
T2 sequence (whole entry): T1 sequence (P16278 whole entry) with R201C
Kind of series: Activation of human beta-galactosidase R201C mutant expressed in mouse fibroblasts using 4-methylumbelliferone -conugated beta-D-galactoside as substrate at 20 uM preincubated for 48 hrs followed by substrate addition measured after 30 mins by fluorescence analysis relative to control.

Series [2] shares this test system. The series can be described thus: Activation of human beta-galactosidase R201C mutant expressed in mouse fibroblasts using 4-methylumbelliferone -conugated beta-D-galactoside as substrate at 2 uM preincubated for 48 hrs followed by substrate addition measured after 30 mins by fluorescence analysis relative to control.
For series [3] the test system is unchanged. Kind of series: Activation of human beta-galactosidase R201C mutant expressed in mouse fibroblasts using 4-methylumbelliferone -conugated beta-D-galactoside as substrate at 0.2 uM preincubated for 48 hrs followed by substrate addition measured after 30 mins by fluorescence analysis relative to control.
The target of series [4] is T3, Beta-galactosidase (Bos taurus) (UniProt Q58D55).
T3 sequence (whole entry): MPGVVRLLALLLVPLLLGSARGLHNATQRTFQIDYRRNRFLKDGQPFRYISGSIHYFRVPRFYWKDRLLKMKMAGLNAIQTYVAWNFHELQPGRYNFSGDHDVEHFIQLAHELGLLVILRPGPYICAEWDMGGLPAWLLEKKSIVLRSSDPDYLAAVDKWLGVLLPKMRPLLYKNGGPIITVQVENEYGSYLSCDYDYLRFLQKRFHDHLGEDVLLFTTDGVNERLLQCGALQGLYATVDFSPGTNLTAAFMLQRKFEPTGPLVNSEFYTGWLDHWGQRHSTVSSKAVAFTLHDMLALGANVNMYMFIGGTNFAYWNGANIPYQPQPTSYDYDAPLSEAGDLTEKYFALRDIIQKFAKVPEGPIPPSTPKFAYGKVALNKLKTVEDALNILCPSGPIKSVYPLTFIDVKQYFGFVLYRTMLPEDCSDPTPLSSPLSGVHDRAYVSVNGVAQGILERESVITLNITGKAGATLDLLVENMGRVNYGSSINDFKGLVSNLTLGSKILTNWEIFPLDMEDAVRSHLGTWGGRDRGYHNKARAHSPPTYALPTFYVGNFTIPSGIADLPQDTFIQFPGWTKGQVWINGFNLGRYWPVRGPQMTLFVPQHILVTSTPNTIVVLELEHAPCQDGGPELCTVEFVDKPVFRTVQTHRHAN
Kind of series: Inhibition of bovine liver beta-galactosidase using p-nitrophenyl-beta-D-galactopyranoside as substrate preincubated with substrate followed by protein addition measured after 30 mins by microplate reader analysis.

The subject of another series is Prunus dulcis. The series can be described thus: Inhibition of almond beta-glucosidase using p-nitrophenyl-beta-D-glucopyranoside as substrate preincubated with substrate followed by protein addition measured after 30 mins by microplate reader analysis.
The target of series [5] is T4, Lysosomal acid glucosylceramidase (Homo sapiens, UniProt P04062).
T4 sequence (P04062 whole entry): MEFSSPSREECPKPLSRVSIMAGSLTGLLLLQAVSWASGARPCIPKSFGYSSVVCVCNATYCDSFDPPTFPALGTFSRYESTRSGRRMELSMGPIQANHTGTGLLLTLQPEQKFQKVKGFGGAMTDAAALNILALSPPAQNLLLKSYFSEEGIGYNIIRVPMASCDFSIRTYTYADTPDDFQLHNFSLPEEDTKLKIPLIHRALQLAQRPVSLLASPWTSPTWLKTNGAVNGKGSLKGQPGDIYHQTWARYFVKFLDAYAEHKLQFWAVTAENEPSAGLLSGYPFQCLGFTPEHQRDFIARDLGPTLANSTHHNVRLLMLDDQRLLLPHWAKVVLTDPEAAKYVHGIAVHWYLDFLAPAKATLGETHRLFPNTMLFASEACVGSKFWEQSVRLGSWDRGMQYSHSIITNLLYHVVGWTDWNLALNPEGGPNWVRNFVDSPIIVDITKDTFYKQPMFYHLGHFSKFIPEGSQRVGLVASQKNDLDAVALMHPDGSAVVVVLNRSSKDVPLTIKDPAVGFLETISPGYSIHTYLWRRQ
The series can be described thus: Inhibition of human beta-glucosidase isolated from human fibroblasts incubated for 30 mins using […] analysis.

Series [6] can be described thus: Inhibition of human alpha-galactosidase isolated from human fibroblasts incubated for 30 mins using […] analysis.
Series [7] in a line: Cytotoxicity against human fibroblasts at 200 uM by LDH assay. In kind it is cell-based. As to conditions: fibroblast.

Numbering of substitutions follows the chain as printed. Active and inactive are the calls of the source. No cut-off for these calls is given here.

Consider two compounds from ChEMBL document CHEMBL3734673, “Potent chemical chaperone compounds for GM1-gangliosidosis: N-substituted (+)-conduramine F-4 derivatives” (Medchemcomm, 2015).

For `CCCCCCCCN[C@@H]1C=C[C@H](O)[C@H](O)[C@H]1O.Cl`, the values for the IC50 (against Beta-galactosidase; in series [5]; in series [6]) were 120 µM, > 1000 µM and > 1000 µM, respectively. The same compound came in with a fold change (FC) in series [1] of 5.4. Moreover, the result in series [2] and in [3] was Active. In addition, the inhibition entry (in [4]; in the series on Prunus dulcis) was “Active” each time. In [7], this compound returned an Activity of 25%.

With `CCCCCCCCN[C@@H]1C=C(C)[C@H](O)[C@H](O)[C@H]1O`, the figures for the IC50 (at Beta-galactosidase; in [5]; in series [6]) were 46 µM, > 1000 µM and > 1000 µM, respectively. In addition, the fold change (FC) in [1] is 5.2. Besides, the result in series [2] and in series [3] was Active.
